How the values were obtained:
C8166 cells [1] = assay: Protective experiment: survival rate of normal cells (MTT); type: cell-based; conditions: normal C8166 cells in protective experiment, three days
Protocol: 50 µl medium was added into half of the holes on the culture plate and 50 µl diluted supernatant fluid of HIV-1, in which the value of M.O.I was 0.0089, was added into the other half of the holes on the culture plate. At the same time, the blank control holes without the drug (the negative control) were set and the control culture holes with positive drug AZT (the positive control) were set too. They were put into 5% CO2 incubator under 37 °C for three days. The survival rate of cells was determined by MTT method. […] The following formulae were used to calculate the survival rate of normal cells caused by the drug and the protective rate of the drug for HIV-1-infected cells. Survival rate of normal cells(%)=OD value of the experimental hole/OD value of negative control hole□100% Protective rate of infected cells(%)=(OD value of the experimental hole−OD value of positive control hole)/(OD value of negative control hole−OD value of positive control hole)□100%

C8166 cells [2] = assay: Cytotoxic effect on C8166 cells (MTT); type: cell-based; conditions: three days, one value per date of experiment

Cc1cn([C@H]2C[C@H](N=[N+]=[N-])[C@@H](CO)O2)c(=O)[nH]c1=O [AZT]
TC50 (C8166 cells [1]): >50 µg/mL
TC50 (C8166 cells [2]): >50 µg/mL
